According to US6559101B2, “N- (5, 7-dimethoxy [1, 2, 4] triazolo [1, 5-a] pyrimidin-2-yl) arylsulfonamide compounds and their use as herbicides” (Dow AgroSciences LLC, priority 2000, dated 2003):

Tests used:
Assay type in all cases: in vivo
[1] = tested on: wild buckwheat (Polygonum convolvulus); assay: Postemergence herbicidal activity; settings: scored after 2 weeks, 0 no injury, 100 complete kill
Procedure: (§1) Seeds of the desired test plant species were planted in Grace-Sierra MetroMix® 306 planting mixture, which typically has a pH of 6.0 to 6.8 and an organic matter content of about 30 percent, in plastic pots with a surface area of 64 square centimeters. When required to ensure good germination and healthy plants, a fungicide treatment and/or other chemical or physical treatment was applied. The plants were grown for 7-21 days in a greenhouse with an approximately 15 hr photoperiod which was maintained at about 23-29° C. during the day and 22-28° C. during the night. Nutrients and water were added on a regular basis and supplemental lighting was provided with overhead metal halide 1000 Watt lamps as necessary. The plants were employed for testing when they reached the first or second true leaf stage. A weighed amount of each test compound, determined by the highest rate to be tested, was placed in a 20 mL glass vial and was dissolved in 4 mL of a 97:3 v/v (volume/volume) mixture of acetone and dimethyl sulfoxide to obtain concentrated stock solutions. […] The concentrated stock solutions obtained were diluted with an aqueous mixture containing acetone, water, iso-propyl alcohol, dimethyl sulfoxide, Atplus 411F crop oil concentrate, and Triton X-155 surfactant (methylenebisdiamyl phenoxy polyethoxy ethanol) in a 48.5:39:10:1.5:1.0:0.02 v/v ratio to obtain spray solutions of known concentration. The solutions containing the highest concentration to be tested were prepared by diluting 2 mL aliquots of the stock solution with 13 mL of the mixture and lower concentrations were prepared by dilution of appropriate smaller portions of the stock solution. Approximately 1.5 mL aliquots of each solution of known concentration were sprayed evenly onto each of the test plant pots using a Devilbiss atomizer driven by compressed air pressure of 2 to 4 psi (140 to 280 kiloPascals) to obtain thorough coverage of each plant. Control plants were sprayed in the same manner with the aqueous mixture. In this test an application rate of 1 ppm results in the application of approximately 1 g/ha. The treated plants and control plants were placed in a greenhouse as described above and watered by sub-irrigation to prevent wash-off of the test compounds. After 2 weeks the condition of the test plants as compared with that of the untreated plants was determined visually and scored on a scale of 0 to 100 percent where 0 corresponds to no injury and 100 corresponds to complete kill.

[2] = tested on: Rox orange sorghum (Sorghum bicolor); assay: Postemergence herbicidal activity; settings: scored after 2 weeks, 0 no injury, 100 complete kill
Procedure: as §1

[3] = tested on: giant foxtail (Setaria faberi); assay: Postemergence herbicidal activity; settings: scored after 2 weeks, 0 no injury, 100 complete kill
Procedure: as §1

[4] = tested on: lambsquarters (Chenopodium album); assay: Postemergence herbicidal activity; settings: scored after 2 weeks, 0 no injury, 100 complete kill
Procedure: as §1

[5] = tested on: pigweed (Amaranthus retroflexus); assay: Postemergence herbicidal activity; settings: scored after 2 weeks, 0 no injury, 100 complete kill
Procedure: as §1

[6] = tested on: morningglory (Ipomoea hederacea); assay: Postemergence herbicidal activity; settings: scored after 2 weeks, 0 no injury, 100 complete kill
Procedure: as §1

[7] = tested on: blackgrass (Alopecurus myosuroides); assay: Postemergence herbicidal activity; settings: scored after 2 weeks, 0 no injury, 100 complete kill
Procedure: as §1

[8] = tested on: cocklebur (Xanthium strumarium); assay: Postemergence herbicidal activity; settings: scored after 2 weeks, 0 no injury, 100 complete kill
Procedure: as §1

viola (Viola tricolor) = assay: Postemergence herbicidal activity; settings: scored after 2 weeks, 0 no injury, 100 complete kill
Procedure: as §1

wild oats (Avena fatua) [9] = assay: Postemergence herbicidal activity; settings: scored after 2 weeks, 0 no injury, 100 complete kill
Procedure: as §1

[10] = tested on: chickweed (Stellaria media); assay: Postemergence herbicidal activity; settings: scored after 2 weeks, 0 no injury, 100 complete kill
Procedure: as §1

[11] = tested on: velvetleaf (Abutilion theophrasti); assay: Postemergence herbicidal activity; settings: scored after 2 weeks, 0 no injury, 100 complete kill
Procedure: as §1

[12] = tested on: Rox orange sorghum (Sorghum bicolor); assay: Preemergence herbicidal activity; settings: scored after 3 weeks, 0 no injury, 100 complete kill or no germination
Procedure: (§2) The soil matrix was contained in plastic pots with a surface area of 161 square centimeters. When required to ensure good germination and healthy plants, a fungicide treatment and/or other chemical or physical treatment was applied. A weighed amount, determined by the highest rate to be tested, of each test compound was placed in a 20 mL glass vial and was dissolved in 8 mL of a 97:3 v/v (volume/volume) mixture of acetone and dimethyl sulfoxide to obtain concentrated stock solutions. […] The stock solutions obtained were diluted with a 99.9:0.1 mixture of water and Tween® 155 surfactant (ethoxylated sorbitan fatty acid ester) to obtain application solutions of known concentration. The solutions containing the highest concentration to be tested were prepared by diluting 4 mL aliquots of the stock solution with 8.5 mL of the mixture and lower concentrations were prepared by dilution of appropriate smaller portions of the stock solution. A 2.5 mL aliquot of each solution of known concentration was sprayed evenly onto the soil of each seeded pot using a Cornwall 5.0 mL glass syringe fitted with a TeeJet TN-3 hollow cone nozzle to obtain thorough coverage of the soil in each pot. Control pots were sprayed in the same manner with the aqueous mixture. A highest application rate of 4.48 kg/ha is achieved when 50 mg of test compound is employed. The treated pots and control pots were placed in a greenhouse with an approximately 15 hr photoperiod which was maintained at about 23-29° C. during the day and 22-28° C. during the night. Nutrients and water were added on a regular basis and supplemental lighting was provided with overhead metal halide 1000 Watt lamps as necessary. The water was added by top-irrigation. After 3 weeks the condition of the test plants that germinated and grew as compared with that of the untreated plants that germinated and grew was determined visually and scored on a scale of 0 to 100 percent where 0 corresponds to no injury and 100 corresponds to complete kill or no germination.

[13] = tested on: giant foxtail (Setaria faberi); assay: Preemergence herbicidal activity; settings: scored after 3 weeks, 0 no injury, 100 complete kill or no germination
Procedure: as §2

[14] = tested on: barnyardgrass (Echinochloa crus-galli); assay: Preemergence herbicidal activity; settings: scored after 3 weeks, 0 no injury, 100 complete kill or no germination
Procedure: as §2

[15] = tested on: lambsquarters (Chenopodium album); assay: Preemergence herbicidal activity; settings: scored after 3 weeks, 0 no injury, 100 complete kill or no germination
Procedure: as §2

[16] = tested on: pigweed (Amaranthus retroflexus); assay: Preemergence herbicidal activity; settings: scored after 3 weeks, 0 no injury, 100 complete kill or no germination
Procedure: as §2

[17] = tested on: morningglory (Ipomoea hederacea); assay: Preemergence herbicidal activity; settings: scored after 3 weeks, 0 no injury, 100 complete kill or no germination
Procedure: as §2

[18] = tested on: blackgrass (Alopecurus myosuroides); assay: Preemergence herbicidal activity; settings: scored after 3 weeks, 0 no injury, 100 complete kill or no germination
Procedure: as §2

[19] = tested on: cocklebur (Xanthium strumarium); assay: Preemergence herbicidal activity; settings: scored after 3 weeks, 0 no injury, 100 complete kill or no germination
Procedure: as §2

wild oats (Avena fatua) [20] = assay: Preemergence herbicidal activity; settings: scored after 3 weeks, 0 no injury, 100 complete kill or no germination
Procedure: as §2

[21] = tested on: wild poinsettia (Euphorbia heterophylla); assay: Preemergence herbicidal activity; settings: scored after 3 weeks, 0 no injury, 100 complete kill or no germination
Procedure: as §2

[22] = tested on: crabgrass (Digitaria sanguinalis); assay: Preemergence herbicidal activity; settings: scored after 3 weeks, 0 no injury, 100 complete kill or no germination
Procedure: as §2

[23] = tested on: velvetleaf (Abutilion theophrasti); assay: Preemergence herbicidal activity; settings: scored after 3 weeks, 0 no injury, 100 complete kill or no germination
Procedure: as §2

SMILES: COc1cc(OC)n2nc(NS(=O)(=O)c3c(OC(C)C)cccc3C(F)(F)F)nc2n1 [Compound 11]
- Postemergence herbicidal activity POLCO ([1]; 62.5 ppm): 100%
- Postemergence herbicidal activity SORBI ([2]; 62.5 ppm): 50%
- Postemergence herbicidal activity SETFA ([3]; 62.5 ppm): 100%
- Postemergence herbicidal activity CHEAL ([4]; 62.5 ppm): 100%
- Postemergence herbicidal activity AMARE ([5]; 62.5 ppm): 100%
- Postemergence herbicidal activity IPOHE ([6]; 62.5 ppm): 80%
- Postemergence herbicidal activity ALOMY ([7]; 62.5 ppm): 60%
- Postemergence herbicidal activity XANST ([8]; 62.5 ppm): 100%
- Postemergence herbicidal activity VIOTR (viola (Viola tricolor); 62.5 ppm): 90%
- Postemergence herbicidal activity AVEFA (wild oats (Avena fatua) [9]; 62.5 ppm): 30%
- Postemergence herbicidal activity STEME ([10]; 62.5 ppm): 95%
- Postemergence herbicidal activity ABUTH ([11]; 62.5 ppm): 100%
- Preemergence herbicidal activity SORBI ([12]; 17.5 g/Ha): 90%
- Preemergence herbicidal activity SETFA ([13]; 17.5 g/Ha): 100%
- Preemergence herbicidal activity ECHCG ([14]; 17.5 g/Ha): 100%
- Preemergence herbicidal activity CHEAL ([15]; 17.5 g/Ha): 100%
- Preemergence herbicidal activity AMARE ([16]; 17.5 g/Ha): 100%
- Preemergence herbicidal activity IPOHE ([17]; 17.5 g/Ha): 98%
- Preemergence herbicidal activity ALOMY ([18]; 17.5 g/Ha): 100%
- Preemergence herbicidal activity XANST ([19]; 17.5 g/Ha): 90%
- Preemergence herbicidal activity AVEFA (wild oats (Avena fatua) [20]; 17.5 g/Ha): 60%
- Preemergence herbicidal activity EPHHL ([21]; 17.5 g/Ha): 90%
- Preemergence herbicidal activity DIGSA ([22]; 17.5 g/Ha): 80%
- Preemergence herbicidal activity ABUTH ([23]; 17.5 g/Ha): 100%

SMILES: COc1cc(OC)n2nc(NS(=O)(=O)c3c(C(F)(F)C(F)(F)F)ccnc3OC)nc2n1 [Compound 18]
- Postemergence herbicidal activity POLCO ([1]; 31.3 ppm): 60%
- Postemergence herbicidal activity SORBI ([2]; 31.3 ppm): 90%
- Postemergence herbicidal activity SETFA ([3]; 31.3 ppm): 85%
- Postemergence herbicidal activity CHEAL ([4]; 31.3 ppm): 95%
- Postemergence herbicidal activity AMARE ([5]; 31.3 ppm): 100%
- Postemergence herbicidal activity IPOHE ([6]; 31.3 ppm): 70%
- Postemergence herbicidal activity ALOMY ([7]; 31.3 ppm): 65%
- Postemergence herbicidal activity XANST ([8]; 31.3 ppm): 85%
- Postemergence herbicidal activity VIOTR (viola (Viola tricolor); 31.3 ppm): 80%
- Postemergence herbicidal activity AVEFA (wild oats (Avena fatua) [9]; 31.3 ppm): 50%
- Postemergence herbicidal activity STEME ([10]; 31.3 ppm): 100%
- Postemergence herbicidal activity ABUTH ([11]; 31.3 ppm): 90%
- Preemergence herbicidal activity SORBI ([12]; 35 g/Ha): 100%
- Preemergence herbicidal activity SETFA ([13]; 35 g/Ha): 100%
- Preemergence herbicidal activity ECHCG ([14]; 35 g/Ha): 90%
- Preemergence herbicidal activity CHEAL ([15]; 35 g/Ha): 100%
- Preemergence herbicidal activity AMARE ([16]; 35 g/Ha): 100%
- Preemergence herbicidal activity IPOHE ([17]; 35 g/Ha): 90%
- Preemergence herbicidal activity ALOMY ([18]; 35 g/Ha): 100%
- Preemergence herbicidal activity XANST ([19]; 35 g/Ha): 70%
- Preemergence herbicidal activity AVEFA (wild oats (Avena fatua) [20]; 35 g/Ha): 70%
- Preemergence herbicidal activity EPHHL ([21]; 35 g/Ha): 70%
- Preemergence herbicidal activity DIGSA ([22]; 35 g/Ha): 100%
- Preemergence herbicidal activity ABUTH ([23]; 35 g/Ha): 95%

SMILES: CCc1ccc(OC)c(S(=O)(=O)Nc2nc3nc(OC)cc(OC)n3n2)c1 [Compound 9]
- Postemergence herbicidal activity POLCO ([1]; 62.5 ppm): 50%
- Postemergence herbicidal activity SORBI ([2]; 62.5 ppm): 30%
- Postemergence herbicidal activity SETFA ([3]; 62.5 ppm): 30%
- Postemergence herbicidal activity CHEAL ([4]; 62.5 ppm): 80%
- Postemergence herbicidal activity AMARE ([5]; 62.5 ppm): 70%
- Postemergence herbicidal activity IPOHE ([6]; 62.5 ppm): 10%
- Postemergence herbicidal activity XANST ([8]; 62.5 ppm): 70%
- Postemergence herbicidal activity VIOTR (viola (Viola tricolor); 62.5 ppm): 50%
- Postemergence herbicidal activity AVEFA (wild oats (Avena fatua) [9]; 62.5 ppm): 20%
- Postemergence herbicidal activity STEME ([10]; 62.5 ppm): 50%
- Postemergence herbicidal activity ABUTH ([11]; 62.5 ppm): 30%
- Preemergence herbicidal activity SORBI ([12]; 70 g/Ha): 0%
- Preemergence herbicidal activity SETFA ([13]; 70 g/Ha): 20%
- Preemergence herbicidal activity ECHCG ([14]; 70 g/Ha): 0%
- Preemergence herbicidal activity CHEAL ([15]; 70 g/Ha): 30%
- Preemergence herbicidal activity AMARE ([16]; 70 g/Ha): 40%
- Preemergence herbicidal activity IPOHE ([17]; 70 g/Ha): 30%
- Preemergence herbicidal activity ALOMY ([18]; 70 g/Ha): 0%
- Preemergence herbicidal activity XANST ([19]; 70 g/Ha): 0%
- Preemergence herbicidal activity AVEFA (wild oats (Avena fatua) [20]; 70 g/Ha): 0%
- Preemergence herbicidal activity EPHHL ([21]; 70 g/Ha): 0%
- Preemergence herbicidal activity DIGSA ([22]; 70 g/Ha): 0%
- Preemergence herbicidal activity ABUTH ([23]; 70 g/Ha): 20%
